Measurements from patent US20230235378A1, “LZHEIMER'S DISEASE-SPECIFIC ALTERATIONS OF PROTEIN KINASE C EPSILON (PKC-EPSILON PROTEIN LEVELS” (WEST VIRGINIA UNIVERSITY BOARD OF GOVERNORS ON BEHALF OF …, priority 2010, published 2023).
Where two headings read alike, the source gives them in different places.

Assays:
Aß [1] = experiment: Aß production in N2a neuroblastoma cells transfected with human APPSwe/PS1D (Aß 1-42 ELISA); type: cell-based, mouse; conditions: for levels of both intracellular and secreted Aß: 24 h incubation, various concentrations
Protocol: (§1) Aß Measurement and Cell Viability Assay. Aß was measured using an Aß 1-42 human fluorimetric ELISA kit (Invitrogen) according to the manufacturer's instructions. Results were measured in a Biotek Synergy HT microplate reader. AlamarBlue and CyQuant NF (Invitrogen) according to the manufacturer's instructions.
To measure the effects of PKC activation on Aß production, we used mouse neuro2a (N2a) neuroblastoma cells transfected with human APPSwe/PS1D, which produce large quantities of Aβ. Petanceska et al., J. Neurochem. 1996; 74: 1878-84. […] With bryostatin, which activates PKC by binding to the diacylglycerol-binding site, the inhibition was biphasic, with concentrations of 20 nM or higher producing no net effect. This may be explained by the ability of this class of PKC activators to downregulate PKC when used at high concentrations.

[2] = Cell viability assay (alamar Blue and CyQuant staining); type: cell-based
Protocol: as §1

[3] = test system: Endothelin-converting enzyme (ECE); experiment: ECE assay in neuroblastoma cells (fluorimetric, McaBK2); type: cell-based, human; conditions: bryostatin 0.27 nM, BR-101 1 μM, BR-111 1
Protocol: ECE Assay. SH-5757 neuroblastoma cells were incubated with bryostatin (0.27 nM), BR-101 (DCP-LA) (1 μM), and BR-111 (DHA-CP6) (1 Endothelin-converting enzyme (ECE) was measured fluorimetrically using the method of Johnson and Ahn, Anal. Biochem. 2000; 286: 112-118. A sample of cell homogenate (20 μl) was incubated in 50 mM MES-KOH, pH 6.0, 0.01% C 12E10 (polyoxyethylene-10-lauryl ether), and 15 μM McaBK2 (7-Methoxycoumarin-4-acetyl [Ala7-(2,4-Dinitrophenyl)Lys9]-bradykinin trifluoroacetate salt) (Sigma-Aldrich). After 60 min at 37° C., the reaction was quenched by adding trifluoroacetic acid to 0.5%. The sample was diluted to 1.4 ml with water and the fluorescence was measured at ex=334 nm, em=398 nm.

Aß [4] = experiment: Degradation of exogenous monomeric Aβ-42 in SH-SY5Y cells; type: cell-based, human; conditions: 0.01 to 10 μM; 100 nM exogenous monomeric Aβ-42; 24 h
Protocol: as §1
To determine whether the reduced levels of Aß caused by PKC activators were due to inhibition of Aß synthesis or activation of Aß degradation, we applied BR-111 (DHA-CP6) (0.01 to 10 μM) and low concentrations (100 nM) of exogenous monomeric Aβ-42 to cultured SH-SY5Y cells. This concentration of Aß is too low to produce measurable toxicity or cell death. Since SH-SY5Y cells produce only trace amounts of Aβ, this experiment was an effective test of the ability of PKC activators to enhance Aß degradation. By 24 h, most of the Aß had been taken up by the cells and the concentration of Aß in the culture medium was undetectable.

purified PKC = molecular target: T1, purified PKC (Homo sapiens, UniProt Q02156); experiment: PKC isozyme specificity: purified PKC preincubated with compound, activity measured radiometrically; type: biochemical
T1 construct: purchased Calbiochem
T1 sequence (Q02156 1-737): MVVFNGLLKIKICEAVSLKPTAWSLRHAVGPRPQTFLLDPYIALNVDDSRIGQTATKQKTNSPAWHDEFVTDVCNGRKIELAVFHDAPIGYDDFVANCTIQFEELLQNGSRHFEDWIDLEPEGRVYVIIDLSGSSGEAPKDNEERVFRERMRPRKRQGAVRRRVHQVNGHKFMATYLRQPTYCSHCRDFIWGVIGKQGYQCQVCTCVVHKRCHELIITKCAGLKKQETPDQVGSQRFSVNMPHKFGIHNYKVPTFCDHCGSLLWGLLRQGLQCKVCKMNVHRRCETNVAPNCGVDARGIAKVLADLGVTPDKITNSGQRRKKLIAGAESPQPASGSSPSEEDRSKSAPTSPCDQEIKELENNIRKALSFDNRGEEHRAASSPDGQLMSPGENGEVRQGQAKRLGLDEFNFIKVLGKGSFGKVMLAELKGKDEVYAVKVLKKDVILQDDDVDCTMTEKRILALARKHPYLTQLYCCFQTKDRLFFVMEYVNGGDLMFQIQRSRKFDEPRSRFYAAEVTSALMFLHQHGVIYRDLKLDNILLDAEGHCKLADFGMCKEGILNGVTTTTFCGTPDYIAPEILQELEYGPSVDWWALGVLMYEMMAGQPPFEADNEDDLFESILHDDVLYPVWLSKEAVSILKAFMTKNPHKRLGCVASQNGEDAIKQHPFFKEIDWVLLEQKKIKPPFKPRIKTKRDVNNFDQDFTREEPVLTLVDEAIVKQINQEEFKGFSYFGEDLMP
Protocol: (§2) Protein Kinase C Assay. Rat hippocampal cells were cultured and scraped in 0.2 ml homogenization buffer (20 mM Tris-HCl, pH 7.4, 50 mM NaF, 1 μg/ml leupeptin, and 0.1 mM PMSF) and homogenized by sonication in a Marsonix micro-probe sonicator (5 sec, 10 W). To measure PKC, 10 μl of cell homogenate or purified PKC isozyme (purchased from Calbiochem) was incubated for 15 min at 37° C. in the presence of 10 μM histones, 4.89 mM CaCl2, 1.2 μg/μl phosphatidyl-L-serine, 0.18 μg/μl 1,2-dioctanoyl-sn-glycerol, 10 mM MgCl2, 20 mM HEPES (pH 7.4), 0.8 mM EDTA, 4 mM EGTA, 4% glycerol, 8 μg/ml aprotinin, 8 μg/ml leupeptin, and 2 mM benzamidine. 0.5 μCi [γ-32P]ATP was added and 32P-phosphoprotein formation was measured by adsorption onto phosphocellulose as described previously. Nelson and Alkon, J. Neurochemistry. 1995; 65: 2350-57. For measurements of activation by BR-101 (DCP-LA) and similar compounds, PKC activity was measured in the absence of diacylglycerol and phosphatidylserine, as described by Kanno et al., and PKC δ, ε, η, and were measured in the absence of added EGTA and CaCl2, as described by Kanno et al., J. Lipid Res. 2006; 47: 1146-50. Low concentrations of Ca2+ are used because high Ca2+ interacts with the PKC phosphatidylserine binding site and prevents activation. For measurements of bryostatin activation, 1,2-diacylglycerol was omitted unless otherwise stated.
To determine their PKC isozyme specificity, the new compounds were preincubated with purified PKC for five minutes and the PKC activity was measured radiometrically.

TACE = TACE assay in cell homogenates of neuronal cells; type: cell-based; conditions: human SH-SY5Y, N2a mouse neuroblastoma cells, primary neurons from rat hippocampus
Protocol: TACE Assay. TACE was measured by incubating 5 μl cell homogenate, 3 μl buffer (50 mM Tris-HCl 7.4 plus 25 mM NaCl plus 4% glycerol), and 1 μl of 100 μM TACE substrate IV (Aβz-LAQAVRSSSR-DPa) (Calbiochem) for 20 min at 37° in 1.5-ml polypropylene centrifuge tubes (Jin et al., Anal. Biochem. 2002; 302: 269-75). The reaction was stopped by cooling to 4° C. The samples were diluted to 1 ml and the fluorescence was rapidly measured (ex=320 nm, em=420 nm) in a Spex Fluorolog 2 spectrofluorometer.
Buxbaum et al., J. Biol. Chem. 1998; 273: 27765-67; Etcheberrigaray et al., Proc. Natl. Acad. Sci. USA. 2006: 103:8215-20. However, many of these earlier studies were carried out in fibroblasts and other non-neuronal cell types, which appear to respond differently to PKC activators than neurons.

PKC [5] = experiment: PKC activity in cultured rat hippocampal H19-7/IGF-IR cells; type: cell-based
Protocol: Cell Culture. Rat hippocampal H19-7/IGF-IR cells (ATCC, Manassas, Va.) were plated onto poly-L-lysine coated plates and grown at 35° C. in DMEM/10% FCS for several days until about 50% coverage was obtained. The cells were then induced to differentiate into a neuronal phenotype by replacing the medium with 5 ml N2 medium containing 10 ng/ml basic fibroblast growth factor at 39° C. and grown in T-75 flasks at 37° C. Human SH-SY5Y neuroblastoma cells (ATCC) were cultured in 45% F 12K/45% MEM/10% FCS. Mouse N2A neuroblastoma cells were cultured in DMEM/10% FCS without glutamine. Rat hippocampal neurons from 18-day-old embryonic
as §2
PKC activators that bind to the diacylglycerol binding site, including bryostatin, gnidimacrin, and phorbol esters, produce a transient activation of PKC activity, followed by a prolonged downregulation. Nelson et al., Trends in Biochem. Sci. 2009; 34: 136-45. This was confirmed in cultured rat hippocampal cells. Incubation of rat 1119-7/IGF-IR cells with (0.04 nM and 0.2 nM) bryostatin produced a 2-fold activation that lasted 30 min, followed by a 20% downregulation that returned to baseline by 24 h (data not shown). […] This sustained activation was only observed in primary neurons.

rats = conditions: cited from earlier work
PKC [6] = experiment: PKC in perforated fibers of AD transgenic mice (FIG. 8); type: in vivo
α-secretase = conditions: human fibroblasts, cited from earlier work

Structure (SMILES) | levels of both intracellular and secreted Aß (Aß [1]) | concentration dependence of Aß inhibition (Aß [1]; concentrations up to 10 to 100 μM, no evidence of downregulation at higher concentrations) | effect on cell survival or proliferation [2] | change in ECE activity [3] | reduction of cellular levels of Aß (Aß [4]) | concentration needed to activate PKC, relative to BR-101 (DCP-LA) (purified PKC; compared with BR-101 (DCP-LA)) | activation of purified PKC (purified PKC; used as methyl esters) | change in TACE activity (TACE) | downregulation of PKC following activation (PKC [5]; 0.04 nM and 0.2 nM) | time of return of PKC to baseline (PKC [5]; 0.04 nM and 0.2 nM) | activation of PKC activity (PKC [5]; 0.04 nM and 0.2 nM, data not shown) | downregulation of PKC activity (PKC [5]; 8 h, data not shown) | rate of learning (rats) | loss of PKC in perforated fibers (PKC [6]) | increase of initial rate of α-secretase activity (α-secretase; 10 μM) | increase of initial rate of α-secretase activity (α-secretase; 100 μM)
CCC1CC1CC1CC1CC1CC1CC1CC1CC1CC1CC1CC1CCC(=O)OC (stereo not shown) [BR-111, methyl-3-(2-((2-((2-((2-((2-((2-ethylcyclopropyl)methyl)cyclopropyl)methyl)cyclopropyl)methyl)-cyclopropyl)methyl)cyclopropyl)methyl)cyclopropyl)propanoate] | markedly reduced | monotonically increasing inhibition | no effect | sustained increase | 45-63% | approx. 100 times lower | activated purified PKC to a similar extent | only produced small increases |  |  |  |  |  |  |  | 
CCC/C=C/C=C/C(=O)O[C@H]1/C(=C/C(=O)OC)C[C@H]2C[C@H]([C@@H](C)O)OC(=O)C[C@H](O)C[C@@H]3C[C@H](OC(C)=O)C(C)(C)[C@](O)(C[C@@H]4C/C(=C/C(=O)OC)C[C@H](/C=C/C(C)(C)[C@]1(O)O2)O4)O3 [bryostatin] | markedly reduced |  |  | sustained increase |  |  |  | only produced small increases | 20% | ≤ 24 h | 2 fold | at or near the baseline | dramatically increase | prevents the loss of PKC in perforated fibers | 16 fold | 132 fold
